Experimental data taken from the NIST ThermoML archive (doi:10.1021/acs.jced.8b00403).

Experiment: wn = mass fraction of the nth substance listed
Settings: 101.33 kPa, Liquid; for viscosity: Concentric cylinders viscometry; for mass density: Vibrating tube method

CC(O)CO (configuration not stated) [1,2-propanediol] + O
Settings	mass density [kg/m3]	viscosity [mPa·s]
253.15 K, w1 = 0.5005	1062.5	84.94
253.15 K, w1 = 0.672	1070.8	204.36
253.15 K, w1 = 0.8044	1071.6	415.71
253.15 K, w1 = 0.9481	1068.2	1067
253.15 K, w1 = 1	1065.8	1772.4
258.15 K, w1 = 0.3312	1041.7	21.95
258.15 K, w1 = 0.5005	1059.8	55.34
258.15 K, w1 = 0.672	1067.6	128.54
258.15 K, w1 = 0.8044	1068.1	256.2
258.15 K, w1 = 0.9481	1064.7	638.89
258.15 K, w1 = 1	1062.2	1038.3
263.15 K, w1 = 0.3312	1040	15.59
263.15 K, w1 = 0.5005	1056.9	37.52
263.15 K, w1 = 0.672	1064.3	84.22
263.15 K, w1 = 0.8044	1064.5	164.62
263.15 K, w1 = 0.9481	1061	396.61
263.15 K, w1 = 1	1058.6	631.08
268.15 K, w1 = 0.198	1021.7	5.78
268.15 K, w1 = 0.3312	1038.15	11.45
268.15 K, w1 = 0.5005	1054	26.37
268.15 K, w1 = 0.672	1060.9	57.22
268.15 K, w1 = 0.8044	1061.1	109.37
268.15 K, w1 = 0.9481	1057.4	254.76
268.15 K, w1 = 1	1054.9	396.99
273.15 K, w1 = 0.0988	1009.8	2.877
273.15 K, w1 = 0.198	1020.8	4.552
273.15 K, w1 = 0.3312	1036.3	8.655
273.15 K, w1 = 0.5005	1051.1	19.12
273.15 K, w1 = 0.672	1057.5	40.16
273.15 K, w1 = 0.8044	1057.6	75.05
273.15 K, w1 = 0.9481	1053.8	169.13
273.15 K, w1 = 1	1051.3	258
283.15 K, w1 = 0.0988	1008.2	1.991
283.15 K, w1 = 0.198	1017.8	3.017
283.15 K, w1 = 0.3312	1031.2	5.306
283.15 K, w1 = 0.5005	1044.6	10.83
283.15 K, w1 = 0.672	1050.5	21.24
283.15 K, w1 = 0.8044	1050.4	38.42
283.15 K, w1 = 0.9481	1045.6	86.69
283.15 K, w1 = 1	1042.9	116.68
293.15 K, w1 = 0.0988	1005.7	1.454
293.15 K, w1 = 0.198	1014.5	2.171
293.15 K, w1 = 0.3312	1026.3	3.536
293.15 K, w1 = 0.5005	1038.1	6.741
293.15 K, w1 = 0.672	1043.2	12.58
293.15 K, w1 = 0.8044	1042.9	21.75
293.15 K, w1 = 0.9481	1038.2	45.66
293.15 K, w1 = 1	1035.5	59.75
303.15 K, w1 = 0.0988	1002.6	1.148
303.15 K, w1 = 0.198	1010.6	1.599
303.15 K, w1 = 0.3312	1021	2.503
303.15 K, w1 = 0.5005	1031.4	4.51
303.15 K, w1 = 0.672	1035.9	8.01
303.15 K, w1 = 0.8044	1035.4	13.28
303.15 K, w1 = 0.9481	1030.8	26.09
303.15 K, w1 = 1	1028.1	33.26
313.15 K, w1 = 0.0988	999	0.9194
313.15 K, w1 = 0.198	1006	1.241
313.15 K, w1 = 0.3312	1015.3	1.858
313.15 K, w1 = 0.5005	1024.5	3.166
313.15 K, w1 = 0.672	1028.4	5.398
313.15 K, w1 = 0.8044	1027.8	8.638
313.15 K, w1 = 0.9481	1023.2	16
313.15 K, w1 = 1	1020.6	19.92
323.15 K, w1 = 0.0988	994.4	0.7541
323.15 K, w1 = 0.198	1000.8	0.9933
323.15 K, w1 = 0.3312	1009.2	1.436
323.15 K, w1 = 0.5005	1017.4	2.345
323.15 K, w1 = 0.672	1020.8	3.852
323.15 K, w1 = 0.8044	1020.1	5.938
323.15 K, w1 = 0.9481	1015.6	10.4
323.15 K, w1 = 1	1013	12.68
333.15 K, w1 = 0.0988	989.3	0.6304
333.15 K, w1 = 0.198	995.4	0.8167
333.15 K, w1 = 0.3312	1002.7	1.145
333.15 K, w1 = 0.5005	1010	1.802
333.15 K, w1 = 0.672	1013	2.852
333.15 K, w1 = 0.8044	1012.2	4.247
333.15 K, w1 = 0.9481	1007.8	7.094
333.15 K, w1 = 1	1005.3	8.498
343.15 K, w1 = 0.0988	983.5	0.5375
343.15 K, w1 = 0.198	989.2	0.6869
343.15 K, w1 = 0.3312	996	0.9408
343.15 K, w1 = 0.5005	1002.3	1.425
343.15 K, w1 = 0.672	1004.9	2.188
343.15 K, w1 = 0.8044	1004.1	3.161
343.15 K, w1 = 0.9481	999.8	5.053
343.15 K, w1 = 1	997.7	5.95
353.15 K, w1 = 0.0988	977.2	0.4666
353.15 K, w1 = 0.198	982.5	0.5856
353.15 K, w1 = 0.3312	988.9	0.7888
353.15 K, w1 = 0.5005	994.6	1.162
353.15 K, w1 = 0.672	996.9	1.733
353.15 K, w1 = 0.8044	996	2.433
353.15 K, w1 = 0.9481	991.9	3.734
353.15 K, w1 = 1	989.5	4.332
